Values quoted from earlier work as cited in patent US5565433A, “Sulfated β-glycolipid derivatives as cell adhesion inhibitors” (Bristol-Myers Squibb Company, priority 1996, dated 1996).

Tested on: P-selectin
Settings: cells grown in the presence of sodium selenate; cited from earlier work

O=[Se](=O)(O)O [sodium selenate]
inhibition of P-selectin binding to myeloid cell lines (in words): can be inhibited
